Pest or weed control data for 28 compounds are collected here from patent US9681664B2, “Macrocyclic picolinamides as fungicides” (Dow Agrosciences LLC, priority 2012, dated 2017).

Molecules are shown by their SMILES. Read-outs that look alike come from different tables or passages of the source.

Test [1] concerns Mycosphaerella graminicola; Anamorph: Septoria tritici. Put plainly: Leaf blotch of wheat (SEPTTR) disease control on wheat seedlings. Format: in vivo. The settings on record: Zymoseptoria tritici, High volume application, 100 ppm. The method, boiled down: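 Protective or curative format: Septoria tritici inoculation either preceded or followed fungicide application to first-leaf Yuma wheat. Severity scored 0–100%; control expressed versus untreated.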

Test [2] relates to Puccinia triticina; Synonym: Puccinia recondite f. sp. tritici. Put plainly: Wheat brown rust (PUCCRT) disease control on wheat seedlings. Format: in vivo. The settings on record: Puccinia triticina, High volume application, 100 ppm. The gist of the method: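 Yuma wheat grown to first fully emerged leaf was inoculated with Puccinia triticina spore suspension either before or after fungicide treatment, held overnight at 22° C. and 100% RH in darkness, then kept at 24° C. Fungicide applied by booth sprayer to run-off (acetone/water, 110 ppm Triton X-100) or as EC by track spray.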

Where [3] appears, read: 24 h, 1 Day Protectant, read-out: SEPTTR 1DP disease control.
Where [4] appears, read: 72 h, 3 Day Curative, read-out: SEPTTR 3DC disease control.
Setting [5] is: 24 h, 1 Day Protectant, read-out: PUCCRT 1DP disease control.
The mark [6] stands for this setting: 72 h, 3 Day Curative, read-out: PUCCRT 3DC disease control.

In the case of `COc1ccnc(C(=O)N[C@H]2CCC[C@H](OC3CCCC3)[C@@H](OCC(C)C)[C@H](C)OC2=O)c1OCOC(=O)C(C)C` [F124], the pest or weed control at 100 ppm in test [1] (setting [3]), in test [1] (setting [4]), in test [2] (setting [5]) and in test [2] (setting [6]) was 80 to 100% each time.
Regarding `COc1ccnc(C(=O)N[C@H]2CCC[C@H](OC3CCCC3)[C@@H](OCCCC(F)(F)F)[C@H](C)OC2=O)c1OCOC(C)=O` [F125], the pest or weed control at 100 ppm in test [1] (setting [3]), in test [1] (setting [4]), in test [2] (setting [5]) and in test [2] (setting [6]) was 80 to 100% throughout.
Regarding `COc1ccnc(C(=O)N[C@H]2CCC[C@H](OC3CCCC3)[C@@H](OCCCC(F)(F)F)[C@H](C)OC2=O)c1OCOC(=O)C(C)C` [F126], the pest or weed control at 100 ppm in test [1] (setting [3]), in test [1] (setting [4]), in test [2] (setting [5]) and in test [2] (setting [6]) was 80 to 100% in each case.
`CCCO[C@H]1CCC[C@H](NC(=O)c2nccc(OC)c2O)C(=O)O[C@@H](C)[C@@H]1Oc1ccccc1` [F127]: the pest or weed control at 100 ppm in test [1] (setting [3]), in test [1] (setting [4]), in test [2] (setting [5]) and in test [2] (setting [6]) was 80 to 100% throughout.
As to `COc1ccnc(C(=O)N[C@H]2CCC[C@H](OCCCc3ccccc3)[C@@H](Oc3ccccc3)[C@H](C)OC2=O)c1O` [F128], the pest or weed control at 100 ppm is 80 to 100% in test [1] (setting [3]), less than 0% in test [1] (setting [4]), 80 to 100% in test [2] (setting [5]) and 0 to 80% in test [2] (setting [6]).
As to `COc1ccnc(C(=O)N[C@H]2CCC[C@H](OCCCC(F)(F)F)[C@@H](Oc3ccccc3)[C@H](C)OC2=O)c1O` [F129], the pest or weed control at 100 ppm in test [1] (setting [3]) is 80 to 100%; in test [1] (setting [4]) it was less than 0%; in test [2] (setting [5]), 80 to 100%; in test [2] (setting [6]), 80 to 100%.
With `COc1ccnc(C(=O)N[C@H]2CCC[C@H](Oc3ccccc3)[C@@H](OCCCc3ccccc3)[C@H](C)OC2=O)c1OC(C)=O` [F131], the pest or weed control at 100 ppm in test [1] (setting [3]), in test [1] (setting [4]), in test [2] (setting [5]) and in test [2] (setting [6]) was 80 to 100% throughout.
Turning to `COc1ccnc(C(=O)N[C@H]2CCC[C@H](OCCCC(F)(F)F)[C@@H](Oc3ccccc3)[C@H](C)OC2=O)c1OCOC(C)=O` [F135], the pest or weed control at 100 ppm in test [1] (setting [3]), in test [1] (setting [4]), in test [2] (setting [5]) and in test [2] (setting [6]) was 80 to 100% in each case.
Regarding `COc1ccnc(C(=O)N[C@H]2CCC[C@H](OCCCC(F)(F)F)[C@@H](Oc3ccccc3)[C@H](C)OC2=O)c1OCOC(=O)C(C)C` [F136], the pest or weed control at 100 ppm in test [1] (setting [3]), in test [1] (setting [4]), in test [2] (setting [5]) and in test [2] (setting [6]) was 80 to 100% each time.
Turning to `COc1ccnc(C(=O)N[C@H]2CCC[C@H](OCCCC(F)(F)F)[C@@H](Oc3ccccc3)[C@H](C)OC2=O)c1OC(C)=O` [F137], the pest or weed control at 100 ppm in test [1] (setting [3]), in test [1] (setting [4]), in test [2] (setting [5]) and in test [2] (setting [6]) was 80 to 100% throughout.
For `COc1ccnc(C(=O)N[C@H]2CCC[C@H](OC3CCCC3)[C@@H](OC(=O)C3CC3)[C@H](C)OC2=O)c1O` [F142], the pest or weed control at 100 ppm in test [1] (setting [3]) lay within 0 to 80%; in test [1] (setting [4]), 80 to 100%; in test [2] (setting [5]), 80 to 100%; in test [2] (setting [6]), 80 to 100%.
On to `COc1ccnc(C(=O)N[C@H]2CCC[C@H](OC3CCCC3)[C@@H](OC(=O)C3CCCC3)[C@H](C)OC2=O)c1O` [F143], for which the pest or weed control at 100 ppm lay within 80 to 100% in test [1] (setting [3]), 0 to 80% in test [1] (setting [4]), 80 to 100% in test [2] (setting [5]) and 80 to 100% in test [2] (setting [6]).
As for `COc1ccnc(C(=O)N[C@H]2CCC[C@H](OC3CCCC3)[C@@H](OC(=O)C3CC3)[C@H](C)OC2=O)c1OCOC(C)=O` [F144], the pest or weed control at 100 ppm in test [1] (setting [3]), in test [1] (setting [4]), in test [2] (setting [5]) and in test [2] (setting [6]) was 80 to 100% each time.
With `COc1ccnc(C(=O)N[C@H]2CCC[C@H](OC3CCCC3)[C@@H](OC(=O)C3CC3)[C@H](C)OC2=O)c1OCOC(=O)C(C)C` [F145], the pest or weed control at 100 ppm in test [1] (setting [3]), in test [1] (setting [4]), in test [2] (setting [5]) and in test [2] (setting [6]) was 80 to 100% throughout.
As to `COCCC(=O)Oc1c(OC)ccnc1C(=O)N[C@H]1CCC[C@H](OC2CCCC2)[C@@H](OCC(C)C)[C@H](C)OC1=O` [F146], the pest or weed control at 100 ppm in test [1] (setting [3]), in test [1] (setting [4]), in test [2] (setting [5]) and in test [2] (setting [6]) was 80 to 100% in each case.
For `COCCC(=O)Oc1c(OC)ccnc1C(=O)N[C@H]1CCC[C@H](OC2CCCC2)[C@@H](OC(=O)C2CC2)[C@H](C)OC1=O` [F147], the pest or weed control at 100 ppm in test [1] (setting [3]), in test [1] (setting [4]), in test [2] (setting [5]) and in test [2] (setting [6]) was 80 to 100% in each case.
For `COc1ccnc(C(=O)N[C@H]2CCC[C@H](OC3CCCC3)[C@@H](OC(=O)C3CCCC3)[C@H](C)OC2=O)c1OCOC(C)=O` [F148], the pest or weed control at 100 ppm in test [1] (setting [3]), in test [1] (setting [4]), in test [2] (setting [5]) and in test [2] (setting [6]) was 80 to 100% throughout.
Consider `COc1ccnc(C(=O)N[C@H]2CCC[C@H](OCC(C)C)[C@@H](OC(=O)C3CCCC3)[C@H](C)OC2=O)c1O` [F149], for which the pest or weed control at 100 ppm is 80 to 100% in test [1] (setting [3]), 0 to 80% in test [1] (setting [4]), 80 to 100% in test [2] (setting [5]) and 80 to 100% in test [2] (setting [6]).
Turning to `COc1ccnc(C(=O)N[C@H]2CCC[C@H](OCC(C)C)[C@@H](OC(=O)C3CCCC3)[C@H](C)OC2=O)c1OCOC(C)=O` [F150], the pest or weed control at 100 ppm in test [1] (setting [3]), in test [1] (setting [4]), in test [2] (setting [5]) and in test [2] (setting [6]) was 80 to 100% each time.
As to `COc1ccnc(C(=O)N[C@H]2CCC[C@H](OCC(C)C)[C@@H](OC(=O)C3CCCC3)[C@H](C)OC2=O)c1OC(C)=O` [F151], the pest or weed control at 100 ppm in test [1] (setting [3]), in test [1] (setting [4]), in test [2] (setting [5]) and in test [2] (setting [6]) was 80 to 100% throughout.
As for `COCCC(=O)Oc1c(OC)ccnc1C(=O)N[C@H]1CCC[C@H](OCC(C)C)[C@@H](OC(=O)C2CCCC2)[C@H](C)OC1=O` [F152], the pest or weed control at 100 ppm in test [1] (setting [3]), in test [1] (setting [4]), in test [2] (setting [5]) and in test [2] (setting [6]) was 80 to 100% each time.
For `CCCO[C@H]1CCC[C@H](NC(=O)c2nccc(OC)c2O)C(=O)O[C@@H](C)[C@@H]1OC1CCCC1` [F153], the pest or weed control at 100 ppm in test [1] (setting [3]), in test [1] (setting [4]), in test [2] (setting [5]) and in test [2] (setting [6]) was 80 to 100% in each case.
Take `COc1ccnc(C(=O)N[C@H]2CCC[C@H](OC(=O)C3CCCC3)[C@@H](OC3CCCC3)[C@H](C)OC2=O)c1O` [F156]: the pest or weed control at 100 ppm in test [1] (setting [3]), in test [1] (setting [4]), in test [2] (setting [5]) and in test [2] (setting [6]) was 80 to 100% in each case.
For `COc1ccnc(C(=O)N[C@H]2CCC[C@H](OC(=O)C3CCCC3)[C@@H](OC3CCCC3)[C@H](C)OC2=O)c1OCOC(=O)C(C)C` [F157], the pest or weed control at 100 ppm in test [1] (setting [3]), in test [1] (setting [4]), in test [2] (setting [5]) and in test [2] (setting [6]) was 80 to 100% each time.
Regarding `COc1ccnc(C(=O)N[C@H]2CCC[C@H](OC(=O)C3CCCC3)[C@@H](OC3CCCC3)[C@H](C)OC2=O)c1OCOC(C)=O` [F158], the pest or weed control at 100 ppm in test [1] (setting [3]), in test [1] (setting [4]), in test [2] (setting [5]) and in test [2] (setting [6]) was 80 to 100% each time.
With `COc1ccnc(C(=O)N[C@H]2CCC[C@H](OC(=O)C3CCCC3)[C@@H](OC3CCCC3)[C@H](C)OC2=O)c1OC(C)=O` [F159], the pest or weed control at 100 ppm in test [1] (setting [3]), in test [1] (setting [4]), in test [2] (setting [5]) and in test [2] (setting [6]) was 80 to 100% in each case.
As for `COc1ccnc(C(=O)N[C@H]2CCC[C@H](Oc3ccc(F)cc3)[C@@H](OC3CCCC3)[C@H](C)OC2=O)c1O` [F160], the pest or weed control at 100 ppm in test [1] (setting [3]), in test [1] (setting [4]), in test [2] (setting [5]) and in test [2] (setting [6]) was 80 to 100% throughout.
With `COc1ccnc(C(=O)N[C@H]2CCC[C@H](Oc3ccc(F)cc3)[C@@H](OC3CCCC3)[C@H](C)OC2=O)c1OCOC(=O)C(C)C` [F161], the pest or weed control at 100 ppm in test [1] (setting [3]), in test [1] (setting [4]), in test [2] (setting [5]) and in test [2] (setting [6]) was 80 to 100% each time.
